According to US20070191317A1, “VITAMIN D ANALOG - RAK, METHODS AND USES THEREOF” (WISCONSIN ALUMNI RESEARCH FOUNDATION, priority 2006, published 2007):
“Also recorded” adds a separate entry of the source.

Tests used:
[1] = cited from earlier work; for calcemic activity: as compared to 1α,25-dihydroxyvitamin D3
[2] = molecular target: T1, vitamin D receptors (Homo sapiens, UniProt P11473); settings: cited from earlier work
T1 sequence (P11473 1-427): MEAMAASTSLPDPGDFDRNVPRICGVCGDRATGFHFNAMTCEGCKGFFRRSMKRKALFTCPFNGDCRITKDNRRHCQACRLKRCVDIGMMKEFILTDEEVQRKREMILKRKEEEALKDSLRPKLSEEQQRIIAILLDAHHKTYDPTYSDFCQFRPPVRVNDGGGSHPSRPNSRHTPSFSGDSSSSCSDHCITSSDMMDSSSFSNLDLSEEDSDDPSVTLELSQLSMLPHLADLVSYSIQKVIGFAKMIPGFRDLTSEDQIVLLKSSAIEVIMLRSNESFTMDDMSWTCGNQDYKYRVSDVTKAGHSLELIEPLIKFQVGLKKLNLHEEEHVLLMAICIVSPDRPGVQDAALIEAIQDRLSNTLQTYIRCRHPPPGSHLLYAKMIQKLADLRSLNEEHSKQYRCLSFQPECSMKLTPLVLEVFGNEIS

[3] = Intestinal calcium transport (everted gut sac method); format: in vivo, Sprague-Dawley rats; settings: rats, ip; at equimolar quantities of the dose of 1α,25-dihydroxyvitamin D3; FIG. 3
Method: FIG. 3 is a bar graph comparing the intestinal calcium transport activity of RAK with that of 1,25(OH)2D3.
(§1) Male, weanling Sprague-Dawley rats were placed on Diet 11 (0.47% Ca) diet+AEK for one week followed by Diet 11 (0.02% Ca)+AEK for 3 weeks. The rats were then switched to a diet containing 0.47% Ca for one week followed by two weeks on a diet containing 0.02% Ca. Dose administration began during the last week on 0.02% calcium diet. Four consecutive ip doses were given approximately 24 hours apart. Twenty-four hours after the last dose, blood was collected from the severed neck and the concentration of serum calcium determined as a measure of bone calcium mobilization. The first 10 cm of the intestine was also collected for intestinal calcium transport analysis using the everted gut sac method.

[4] = molecular target: T2, full-length recombinant rat vitamin D receptor (Rattus norvegicus, UniProt P13053); experiment: Vitamin D receptor competitive binding with [3H]-1,25-(OH)2-D3; settings: relative to 1α,25-dihydroxyvitamin D3; FIG. 1
T2 construct: Full-length recombinant rat receptor was expressed in E. coli; histidine tag (C); made in house; host or cells: E. coli BL21(DE3) Codon Plus RIL
T2 sequence (P13053 1-423): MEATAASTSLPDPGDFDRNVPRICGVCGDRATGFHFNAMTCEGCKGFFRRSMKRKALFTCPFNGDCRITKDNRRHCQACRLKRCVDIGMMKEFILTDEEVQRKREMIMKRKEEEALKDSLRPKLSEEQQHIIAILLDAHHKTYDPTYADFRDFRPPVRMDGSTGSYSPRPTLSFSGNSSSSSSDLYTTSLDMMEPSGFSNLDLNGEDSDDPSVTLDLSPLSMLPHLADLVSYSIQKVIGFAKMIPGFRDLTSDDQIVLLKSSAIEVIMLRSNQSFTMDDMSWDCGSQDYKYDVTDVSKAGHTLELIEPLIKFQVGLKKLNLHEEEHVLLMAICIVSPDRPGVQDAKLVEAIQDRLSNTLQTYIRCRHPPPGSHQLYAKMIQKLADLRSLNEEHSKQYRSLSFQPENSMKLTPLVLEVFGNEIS
Method: The first system was a nickel affinity resin that utilizes the C-terminal histidine tag on this protein. The protein that was eluted from this resin was further purified using ion exchange chromatography (S-Sepharose Fast Flow). Aliquots of the purified protein were quick frozen in liquid nitrogen and stored at −80° C. until use. For use in binding assays, the protein was diluted in TEDK50 (50 mM Tris, 1.5 mM EDTA, pH7.4, 5 mM DTT, 150 mM KCl) with 0.1% Chaps detergent. The receptor protein and ligand concentration was optimized such that no more than 20% of the added radiolabeled ligand was bound to the receptor.
The following day, 100 mcl of hydroxylapatite slurry (50%) was added to each tube and mixed at 10-minute intervals for 30 minutes. The hydroxylapaptite was collected by centrifugation and then washed three times with Tris-EDTA buffer (50 mM Tris, 1.5 mM EDTA, pH 7.4) containing 0.5% Titron X-100. After the final wash, the pellets were transferred to scintillation vials containing 4 ml of Biosafe II scintillation cocktail, mixed and placed in a scintillation counter. Total binding was determined from the tubes containing only radiolabeled ligand.

[5] = system: 24-hdyroxylase (24Ohase) gene promoter; experiment: In vitro transcription assay (luciferase reporter) in ROS 17/2.8 (bone) cells; format: cell-based; settings: Ros17/2.8 (bone) cells, relative to 1α,25-dihydroxyvitamin D3; FIG. 5
Method: FIG. 5 is a graph comparing the in vitro transcription activity of RAK with that of 1,25(OH)2D3.
Transcription activity was measured in ROS 17/2.8 (bone) cells that were stably transfected with a 24-hdyroxylase (24Ohase) gene promoter upstream of a luciferase reporter gene (Arbour et al., 1998). Cells were given a range of doses. Sixteen hours after dosing the cells were harvested and luciferase activities were measured using a luminometer. (RLU=relative luciferase units)

[6] = Bone calcium mobilization (serum calcium); format: in vivo, Sprague-Dawley rats; settings: rats, ip, FIG. 2
Method: FIG. 2 is a bar graph comparing the bone calcium mobilization activity of RAK with that of 1,25(OH)2D3.
as §1

[7] = system: HL-60 cells; experiment: HL-60 differentiation (nitro blue tetrazolium reduction); format: cell-based, human; settings: relative to 1α,25-dihydroxyvitamin D3; FIG. 4
Method: FIG. 4 is a graph comparing the percent HL-60 cell differentiation as a function of the concentration of RAK with that of 1,25(OH)2D3.
The study drugs were dissolved in ethanol and the concentrations determined using UV spectrophotometry. Serial dilutions were prepared so that a range of drug concentrations could be tested without changing the final concentration of ethanol (<0.2%) present in the cell cultures.
Human promyelocytic leukemia (HL60) cells were grown in RPMI-1640 medium containing 10% fetal bovine serum. The cells were incubated at 37° C. in the presence of 5% CO2.
HL60 cells were plated at 1.2×10^5 cells/ml. Eighteen hours after plating, cells in duplicate were treated with drug. Four days later, the cells were harvested and a nitro blue tetrazolium reduction assay was performed (Collins et al., 1979; J. Exp. Med. 149:969-974). The percentage of differentiated cells was determined by counting a total of 200 cells and recording the number that contained intracellular black-blue formazan deposits. Verification of differentiation to monocytic cells was determined by measuring phagocytic activity (data not shown).

Question: Which results are given for “1α-hydroxy-2-methylene-19-nor-(20S)-homopregnacalciferol”?
Answer: calcemic activity [1]: little if any calcemic activity; binding activity to vitamin D receptors [2]: relatively high binding activity

Question: For “1α-hydroxy-2-methylene-19-nor-bishomopregnacalciferol”, which calcemic activity [1] is on record?
Answer: little if any calcemic activity

Question: What about the “binding activity to vitamin D receptors” value [2] of the same compound?
Answer: relatively high binding activity

Question: Which calcium mobilizing activity ([1]; in vivo) does the source give for `C[C@H](CCCC(C)(C)O)[C@H]1CC[C@H]2/C(=C/C=C3C[C@@H](O)C[C@H](O)C3)CCC[C@]12C` [1α,25-dihydroxy-19-nor-vitamin D3] here?
Answer: very low

Question: What does the source list for `C=C1[C@H](O)CC(=C/C=C2\CCC[C@]3(C)[C@@H](CC)CC[C@@H]23)C[C@H]1O` [1α-hydroxy-2-methylene-19-nor-pregnacalciferol]?
Answer: calcemic activity [1]: little if any calcemic activity; binding activity to vitamin D receptors [2]: relatively high binding activity

Question: With `C=C1[C@H](O)CC(=C/C=C2\CCC[C@]3(C)[C@@H]([C@H](C)CCCC(C)O)CC[C@@H]23)C[C@H]1O` (stereo partly drawn) [RAK, (20R,25R)-2-Methylene-19,26-dinor-1α,25-dihydroxyvitamin D3] as the compound, how does the “calcemic activity measured by intestinal calcium transport” value [3] read?
Answer: limited calcemic activity; also recorded: very low intestinal calcium transport activity

Question: And the “binding to the recombinant vitamin D receptor” value [4]?
Answer: comparable to 1α,25-dihydroxyvitamin D3; also recorded: relatively high binding

Question: And the “stimulating transcription of a reporter gene” value [5]?
Answer: equally active

Question: What about the “calcemic activity measured by bone calcium mobilization” value ([6]; at 27 time molar quantity of the dose of 1α,25-dihydroxyvitamin D3) of the same compound?
Answer: limited calcemic activity

Question: And the “calcemic activity measured by bone calcium mobilization” value ([6]; at equimolar quantities of the dose of 1α,25-dihydroxyvitamin D3)?
Answer: limited calcemic activity; also recorded: very low ability to mobilize calcium from bone

Question: What about the “inducing differentiation of HL-60 cells” value [7] of the same compound?
Answer: equally active as 1α,25-dihydroxyvitamin D3
